Consider five compounds from patent publication US7655396B1, “Methods for detecting receptor modulator activity” (Allergan, Inc., priority 2006, dated 2010).

“Also recorded” adds a separate entry of the source.

What is called EC50 is the midpoint of the concentration-response curve.

This experiment has as its target T1, mouse alpha 2B receptor (m α2B) (Mus musculus, UniProt P30545).
T1 construct: expressed in transfected cells
T1 sequence (P30545 1-453): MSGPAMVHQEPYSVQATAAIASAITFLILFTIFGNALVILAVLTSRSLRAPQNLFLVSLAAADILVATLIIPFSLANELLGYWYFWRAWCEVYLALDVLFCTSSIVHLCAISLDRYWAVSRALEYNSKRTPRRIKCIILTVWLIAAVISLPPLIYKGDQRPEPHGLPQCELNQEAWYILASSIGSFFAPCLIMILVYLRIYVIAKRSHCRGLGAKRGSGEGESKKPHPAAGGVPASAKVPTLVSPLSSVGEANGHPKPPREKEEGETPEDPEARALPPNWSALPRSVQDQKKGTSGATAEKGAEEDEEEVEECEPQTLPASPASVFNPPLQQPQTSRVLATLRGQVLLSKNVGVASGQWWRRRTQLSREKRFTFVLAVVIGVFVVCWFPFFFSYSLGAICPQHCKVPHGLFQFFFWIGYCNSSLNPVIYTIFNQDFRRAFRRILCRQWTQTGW
The experiment can be described thus: FLIPR calcium flux assay in HEK 293 m α2B/Gqi5 cells (Fluo-4 dye). The conditions noted are these: for activity (ratio of peak height divided by background fluorescence): FIGS. 3A-3C, room temperature, 1 to 10^4 nM, 384 well, FLIPR buffer without HEPES, commercial screening company. In kind it is cell-based. From the text: This example describes the methodology used in assaying compounds for the ability to modulate the α2B receptor in a high throughput assay format in which the “readout” is the measurement of a change in intracellular calcium flux due to the use of the “promiscuous” Gqi5 hybrid G-protein, linking the α2B receptor (normally coupled to the adenylyl cyclase pathway) to the PLC pathway. Changes in intracellular calcium flux are monitored using a dye that becomes fluorescent when it binds free Ca^++ ion.
HEK 293 cells are stably co-transfected with two plasmids, the first encoding the mouse alpha 2B receptor (m α2B), and the second encoding the hybrid Gqi5 protein. […] The nucleotide sequence encoding the human Gqi5 protein is contained in the reference Aiyar et al., Human AT1 receptor is a single copy gene: characterization in a stable cell line. Mol. Cell. […] These references are hereby all incorporated by reference herein. […]
Each well of cells (in a 96 well microtiter dish) is assayed for activity in the FLIPR assay using the Fluo-4® calcium indicator dye to detect calcium flux. The structure of this dye, which can be purchased from Molecular Probes, Inc., is as follows:
The cells are loaded with this dye using the manufacturer's recommendations, and washed 3× with FLIPR Buffer. Assays are conducted at room temperature (unless otherwise indicated in the following examples). […] Only cells releasing Ca++ into the cytosol of the cells (thereby permitting Ca++ binding to the Fluo-4 dye) will have increased fluorescent emission at 520 nm.
Images of the illuminated cells are captured with a charge-coupled device (CCD) camera; CCD technology is adapted for producing high-resolution images in conditions of ultra low light. Images are collected at the rate of 60 images/minute (1 image per second) in each well. After 10 seconds, 50 μl of the test compound is pipetted into the well, and further images are collected at 1 second intervals for an additional 60 seconds, then at 15 second intervals for 4 minutes. Test compounds are prepared from 10^-2 M stocks in DMSO. Compounds are diluted in the FLIPR buffer to a final DMSO concentration of about 1%.
All images are stored on a computer hard drive for later retrieval and analysis.
On the technique in general: Calcium flux is commonly read through the fluorescence of an indicator in the cells.

The mark [1] stands for this setting: FIG. 1, assay carried out at 35° C., 96 well.
Setting [2] is: FIG. 2, second experiment, 35° C., norepinephrine standard.

As for `COc1ccccc1N1CCN(CCN2C(=O)c3ccccc3C(C)(C)C2=O)CC1` [ARC 239, reference compound], the “activity (ratio of peak height divided by background fluorescence)” value is given as “showed no ability to stimulate alpha 2B receptor activity”.

Turning to `c1ncc(CC2CCC3=C(CCCC3)C2)[nH]1` (centres unmarked) [Compound 1], the “activity (ratio of peak height divided by background fluorescence)” value is “do not show activity to any significant degree”. For the setting “32° C., FIG. 4B”, the EC50 is 0.302 µM and the relative efficacy was 30%. Also, where the note is “35° C., FIG. 4C”, the concentration for a half-maximal effect (EC50) came to 0.321 µM and the relative efficacy was found to be 40%. For the setting “37° C., FIG. 4D”, the EC50 amounted to 0.067 µM and the relative efficacy worked out at 40%. Under setting [1], the 50% effective concentration (EC50) amounted to 0.238 µM and the “relative efficacy compared to a norepinephrine standard” value was found to be 40%. In addition, for the setting “Room Temp., FIG. 4A”, the 50% effective concentration (EC50) was determined as 0.305 µM and the relative efficacy is 12%.

As for `OCCNC(=S)NCc1cccc(Cl)c1F` [Compound 2], the “activity (ratio of peak height divided by background fluorescence)” value is given as “shows no activity; also recorded: very modest activity only at very high concentrations; also recorded: do not show activity to any significant degree”. Moreover, for the setting “32° C., FIG. 4B”, the EC50 was 0.337 µM and the relative efficacy came to 32%. For the same compound, under “35° C., FIG. 4C”, the EC50 amounted to 0.318 µM and the relative efficacy amounted to 31%. Moreover, under “37° C., FIG. 4D”, the EC50 is 0.065 µM and the relative efficacy was found to be 30%. Under setting [1], the EC50 was determined as 0.242 µM and the “relative efficacy compared to a norepinephrine standard” value came to 35%. Moreover, the EC50 (Room Temp., FIG. 4A) is > 1 µM.

Consider `O=C1C2=C(CCCC2)CCC1CC1CN=CN1` (centres unmarked) [Compound 3], for which the 50% effective concentration (EC50) (FIG. 2, second experiment, 35° C., 96 well) turned out to be 0.129 µM. Moreover, the relative efficacy under setting [2] came out at 31%.

For the compound norepinephrine [reference compound], the “activity (ratio of peak height divided by background fluorescence)” value is given as “showed an activity ratio above background; also recorded: shows activity above background”. Also, the relative efficacy under setting [2] is on record as 90%.
